According to patent US8350048B2, “Amide compounds as boosters of antivirals” (Janssen R&D Ireland, priority 2007, dated 2013):

Tests used:
[1] = tested on: wild-type HIV-1IIIB strain; assay: Antiviral activity, MT4 LTR-EGFP cellular assay; format: cell-based; conditions: Human immunodeficiency virus 1, 72 h; wild-type HIV-1 IIIB, MT4 LTR-EGFP cells, three days after infection; read-out: Antiviral activity IIIB (pEC50) (converted)
Experimental: (§1) Assay 1 &2: Antiviral Activity/Toxicity
The compounds of the present invention were tested for antiviral activity in a cellular assay, which was performed according to the following procedure.
The human T-cell line MT4 is engineered with Green Fluorescent Protein (GFP) and an HIV-specific promoter, HIV-1 long terminal repeat (LTR). This cell line is designated MT4 LTR-EGFP, and can be used for the in vitro evaluation of anti-HIV activity of investigational compounds. In HIV-1 infected cells, the Tat protein is produced which upregulates the LTR promotor and finally leads to stimulation of the GFP reporter production, allowing measuring ongoing HIV-infection fluorometrically.
(§2) The ratio of CC50 to EC50 is defined as the selectivity index (SI) and is an indication of the selectivity of the anti-HIV activity of the inhibitor. The ultimate monitoring of HIV-1 infection and cytotoxicity is done using a scanning microscope. Image analysis allows very sensitive detection of viral infection. Measurements are done before cell necrosis, which usually takes place about five days after infection, in particular measurements are performed three days after infection.
(§3) A pEC50 value corresponds to −log10(EC50). A pCC50 value corresponds to −log10(CC50).

[2] = Toxicity, mock-infected MT4 CMV-EGFP cells; format: cell-based, human; conditions: human, mock-infected MT4 CMV-EGFP cells; read-out: Toxicity MT4 (pCC50) (converted)
Excerpt: as §1
Analogously, MT4 cells are engineered with GFP and the constitutional cytomegalovirus (CMV) promotor. […] Cytotoxic investigational compounds reduce GFP levels of mock-infected MT4 CMV-EGFP cells.
as §2, §3

[3] = Metabolic stability of test compounds (HLM15'); format: in vitro ADME, human; conditions: pH 7.4; human liver microsomes 1 mg/ml, 5 μM test compound, 15 min; read-out: Metabolic stability (HLM, % recovery after 15')
Excerpt: Human liver tissue is rinsed in ice-cold 0.1 M Tris-HCl (pH 7.4) buffer to wash excess blood. Tissue is then blotted dry, weighed and chopped coarsely using surgical scissors. The tissue pieces are homogenized in 3 volumes of ice-cold 0.1 M phosphate buffer (pH 7.4) using either a Potter-S (Braun, Italy) equipped with a Teflon pestle or a Sorvall Omni-Mix homogenizer, for 7×10 sec. In both cases, the vessel is kept in/on ice during the homogenization process. Tissue homogenates are centrifuged at 9000×g for 20 min at 4° C. using a Sorvall centrifuge or Beckman Ultracentrifuge. The resulting supernatant can be stored at −80° C. and is designated ‘S9’. The S9 fraction is centrifuged at 100,000×g for 60 min at 4° C. using a Beckman ultracentrifuge. The resulting supernatant is carefully aspirated, aliquoted and designated ‘cytosol’. The pellet is re-suspended in 0.1 M phosphate buffer (pH 7.4) in a final volume of 1 ml per 0.5 g original tissue weight and designated ‘microsomes’. All sub-cellular fractions are aliquoted, immediately frozen in liquid nitrogen and stored at −80° C. until use.
Heat-inactivated (10 min at 95° C.) ‘S9’ or microsomes were used for blank experiments. […] The reaction was incubated for 0 or 15 min. Next, the reaction was stopped by addition of 2 volumes of DMSO (or acetonitrile). Samples were centrifuged (10 min, 900×g) and analyzed by LC-MS.

CYP3A4 [4] = molecular target: T1, CYP3A4 (Homo sapiens, UniProt P08684); assay: CYP450 inhibition CDNA-CYP3A4-BFC; conditions: human, E. coli expressed CYP3A4, pH 7.4, probe BFC 150 μM
T1 sequence (P08684 whole entry): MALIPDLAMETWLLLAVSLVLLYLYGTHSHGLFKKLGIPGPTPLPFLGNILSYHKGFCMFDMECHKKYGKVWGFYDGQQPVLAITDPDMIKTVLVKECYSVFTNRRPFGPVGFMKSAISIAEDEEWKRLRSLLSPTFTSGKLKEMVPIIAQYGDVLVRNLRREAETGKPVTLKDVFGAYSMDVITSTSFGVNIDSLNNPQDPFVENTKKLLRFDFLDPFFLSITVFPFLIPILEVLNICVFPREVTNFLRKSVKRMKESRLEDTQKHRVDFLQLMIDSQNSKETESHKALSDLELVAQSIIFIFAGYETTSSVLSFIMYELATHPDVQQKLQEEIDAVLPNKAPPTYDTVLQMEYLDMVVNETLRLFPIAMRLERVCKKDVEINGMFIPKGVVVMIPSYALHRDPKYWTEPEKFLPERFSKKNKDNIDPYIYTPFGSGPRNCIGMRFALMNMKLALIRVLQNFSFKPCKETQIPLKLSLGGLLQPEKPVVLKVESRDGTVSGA
Excerpt: (§4) Assay 4: CYP450 Inhibition

CYP3A4 [5] = molecular target: T1, CYP3A4; assay: CYP450 inhibition CDNA-CYP3A4-BQ; conditions: human, E. coli expressed CYP3A4, pH 7.4, probe BQ 60 μM
Excerpt: as §4

CYP2C9 = CYP2C9 (Homo sapiens, UniProt P11712); assay: in vitro; conditions: human, pH 7.4
Chain of CYP2C9 (P11712 whole entry): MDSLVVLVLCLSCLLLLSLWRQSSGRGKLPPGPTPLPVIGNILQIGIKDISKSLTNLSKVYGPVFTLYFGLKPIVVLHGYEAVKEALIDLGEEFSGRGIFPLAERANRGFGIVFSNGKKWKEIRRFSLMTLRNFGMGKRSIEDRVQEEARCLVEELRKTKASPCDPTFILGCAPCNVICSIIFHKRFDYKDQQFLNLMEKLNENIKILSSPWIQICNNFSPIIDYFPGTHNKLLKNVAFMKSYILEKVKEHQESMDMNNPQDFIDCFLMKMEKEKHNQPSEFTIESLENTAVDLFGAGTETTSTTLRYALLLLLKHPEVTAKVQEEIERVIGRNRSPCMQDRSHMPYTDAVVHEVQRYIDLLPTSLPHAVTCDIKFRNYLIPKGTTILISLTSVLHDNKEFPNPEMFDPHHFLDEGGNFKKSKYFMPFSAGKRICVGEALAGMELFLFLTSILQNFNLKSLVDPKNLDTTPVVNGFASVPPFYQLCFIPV
Excerpt: as §4

CYP3A4 [6] = molecular target: T1, CYP3A4; assay: in vitro; conditions: human, pH 7.4
Excerpt: as §4

CYP2D6 = CYP2D6 (Homo sapiens, UniProt P10635); assay: in vitro; conditions: pH 7.4
Chain of CYP2D6 (P10635 whole entry): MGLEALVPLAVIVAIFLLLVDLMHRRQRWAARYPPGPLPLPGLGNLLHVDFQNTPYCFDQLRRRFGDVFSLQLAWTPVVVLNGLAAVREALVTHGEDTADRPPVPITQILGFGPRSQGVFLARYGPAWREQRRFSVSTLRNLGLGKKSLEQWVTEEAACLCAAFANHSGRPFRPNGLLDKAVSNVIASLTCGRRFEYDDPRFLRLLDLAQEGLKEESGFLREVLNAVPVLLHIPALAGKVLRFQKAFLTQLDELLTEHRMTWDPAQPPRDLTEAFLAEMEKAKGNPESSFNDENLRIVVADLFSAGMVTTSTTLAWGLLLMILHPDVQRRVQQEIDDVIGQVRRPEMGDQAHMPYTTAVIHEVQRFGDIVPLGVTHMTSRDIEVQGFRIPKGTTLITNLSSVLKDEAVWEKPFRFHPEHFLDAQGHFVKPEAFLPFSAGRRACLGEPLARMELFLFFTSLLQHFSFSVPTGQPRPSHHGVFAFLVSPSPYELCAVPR
Experimental: (§5) Inhibition of the metabolism of test compounds by different CYP P450 isoenzymes was determined using E. coli expressed proteins (3A4, 2C9, 2D6, 1A2, and 2C19) that convert their specific substrates into a fluorescent molecule (Table 6). This fluorescent molecule was measured using a fluorescent plate reader (Victor2 (Wallac) or Fluoroskan (Labsystems)). […] CYP P450 enzymes were prepared in house or commercially bought and stored at −80° C.
(§6) The assay was performed in black 96 well Costar plates. Test compounds were added to a CYP P450 enzyme solution in the presence of an NADPH generating system. After 5 min of preincubation at 37° C., the freshly prepared, phosphate buffered (pH 7.4) substrate solution was added. Known CYP P450 inhibitors were used as positive controls, negative controls were run without CYP P450 enzyme. […] Reaction mixtures were incubated at 37° C. for 30 min (CYP3A4-BFC), 30 min (CYP3A4-BQ), 10 min (CYP3A4-DBF), 15 min (CYP1A2-CEC), 30 min (CYP2C9-MFC, CYP2C19-CEC), or 45 min (CYP2D6-AMMC), respectively. Then, the reaction was stopped by the addition of 200 μl acetonitrile, and the fluorescent signal was detected.
(§7) Calculation of CYP P450 isoenzyme inhibition (% inh.):
(§8) % activity=(100/(average positive control−average negative control))×(average sample−average negative control)

CYP1A2 = molecular target: T2, CYP1A2 (Homo sapiens, UniProt P05177); assay: in vitro; conditions: E. coli expressed CYP1A2, pH 7.4, probe CEC 5 μM
T2 sequence (P05177 1-516): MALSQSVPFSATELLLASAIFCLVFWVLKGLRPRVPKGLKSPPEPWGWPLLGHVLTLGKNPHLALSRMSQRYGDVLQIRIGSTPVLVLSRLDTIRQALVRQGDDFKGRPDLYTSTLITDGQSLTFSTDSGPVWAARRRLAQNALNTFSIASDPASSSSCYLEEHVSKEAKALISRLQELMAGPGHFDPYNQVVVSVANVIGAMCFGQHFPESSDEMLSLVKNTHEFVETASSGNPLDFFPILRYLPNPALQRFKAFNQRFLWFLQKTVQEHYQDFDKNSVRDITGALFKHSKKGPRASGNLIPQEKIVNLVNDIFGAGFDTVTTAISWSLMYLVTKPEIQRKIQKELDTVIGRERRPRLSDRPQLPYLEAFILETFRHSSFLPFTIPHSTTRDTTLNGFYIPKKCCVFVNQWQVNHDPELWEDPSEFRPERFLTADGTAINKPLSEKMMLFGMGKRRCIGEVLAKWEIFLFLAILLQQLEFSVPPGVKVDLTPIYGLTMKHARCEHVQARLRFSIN
Experimental: as §5, §6, §7, §8

CYP2C19 = CYP2C19 (Homo sapiens, UniProt P33261); assay: in vitro; conditions: E. coli expressed CYP2C19, pH 7.4, probe CEC 25 μM
Chain of CYP2C19 (P33261 whole entry): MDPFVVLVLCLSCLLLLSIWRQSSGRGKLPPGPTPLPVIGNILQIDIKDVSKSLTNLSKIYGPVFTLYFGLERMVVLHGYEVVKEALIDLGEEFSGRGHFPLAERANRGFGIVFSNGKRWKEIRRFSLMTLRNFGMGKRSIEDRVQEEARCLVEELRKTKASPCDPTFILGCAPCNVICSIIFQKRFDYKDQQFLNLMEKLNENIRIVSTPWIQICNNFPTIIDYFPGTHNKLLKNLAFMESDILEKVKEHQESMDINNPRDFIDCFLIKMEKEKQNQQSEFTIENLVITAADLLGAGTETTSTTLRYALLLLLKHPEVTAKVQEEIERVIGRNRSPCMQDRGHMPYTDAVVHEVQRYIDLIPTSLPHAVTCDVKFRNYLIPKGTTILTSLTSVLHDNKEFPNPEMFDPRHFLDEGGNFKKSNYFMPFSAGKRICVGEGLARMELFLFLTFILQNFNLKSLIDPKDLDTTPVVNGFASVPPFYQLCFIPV
Experimental: as §5, §6, §7, §8

Row | SMILES | EC50 [1] [µM] | CC50 at 3 days [2] [µM] | recovery at 15 min, 5 μM [3] [%] | inhibition at 30 min, 10 μM (CYP3A4 [4]) [%] | inhibition at 30 min, 10 μM (CYP3A4 [5]) [%] | inhibition at 30 min, 10 μM (CYP2C9) [%] | inhibition at 10 min, 10 μM (CYP3A4 [6]) [%] | inhibition at 45 min, 10 μM (CYP2D6) [%] | inhibition at 15 min, 10 μM (CYP1A2) [%] | inhibition at 30 min, 10 μM (CYP2C19) [%]
1 | C#CCN(C[C@@H](O)[C@H](Cc1ccccc1)NC(=O)OCc1cncs1)C(=O)c1ccc2nc(N(C)CC)oc2c1 [Compound C35, Thiazol-5-ylmethyl (2S,3R)-4-(2-(ethyl(methyl)amino)-N-(prop-2-ynyl)benzo[d]oxazole-6-carboxamido)-3-hydroxy-1-phenylbutan-2-ylcarbamate] | 60.3 | 75.9 | 57 | 96 | 76 | 96 | 96 | 59 | 7 | 101
2 | CC(C)CN(C[C@@H](O)[C@H](Cc1ccccc1)NC(=O)OCc1cncs1)C(=O)c1ccc2nc(N)sc2c1 [Compound C6, Thiazol-5-ylmethyl (2S,3R)-4-(2-amino-N-isobutylbenzo[d]thiazole-6-carboxamido)-3-hydroxy-1-phenylbutan-2-ylcarbamate] | 75.9 | > 93.3 | 70 | 76 | 85 | 99 | 94 | 83 | 36 | 94
3 | CC(C)CN(C[C@@H](O)[C@H](Cc1ccccc1)NC(=O)OCc1cncs1)C(=O)c1ccc2nc(N3CCCCC3)oc2c1 [Compound C3, Thiazol-5-ylmethyl (2S,3R)-3-hydroxy-4-(N-isobutyl-2-(piperidin-1y1)-benzo[d]oxazole-6-carboxamido)-1-phenylbutan-2-ylcarbamate] | 36.3 | 32.4 | 71 | 95 | 80 | 100 | 95 | 45 | 19 | 90
4 | CC(C)CN(C[C@@H](O)[C@H](Cc1ccccc1)NC(=O)OCc1cncs1)C(=O)c1ccc2nc(NCCN(C)C)oc2c1 [Compound C16, Thiazol-5-ylmethyl (2S,3R)-4-(2-(2-(dimethylamino)ethylamino)-N-isobutyl-benzo[d]oxazole-6-carboxamido)-3-hydroxy-1-phenylbutan-2-ylcarbamate] | > 100 | > 100 | 59 | 93 | 80 | 34 | 91 | 89 | 0 | 36
5 | CCN(C[C@@H](O)[C@H](Cc1ccccc1)NC(=O)OCc1cncs1)C(=O)c1ccc2nc(N(C)CC)oc2c1 [Compound C29, Thiazol-5-ylmethyl (2S,3R)-4-(N-ethyl-2-(ethyl(methyl)amino)benzo[d]-oxazole-6-carboxamido)-3-hydroxy-1-phenylbutan-2-ylcarbamate] | > 100 | 81.3 | 58 | 90 | 77 | 99 | 94 | 32 | 6 | 97
6 | CC(C)CN(C[C@@H](O)[C@H](Cc1ccccc1)NC(=O)OCc1cncs1)C(=O)c1ccc2ncoc2c1 [Compound C38, Thiazol-5-ylmethyl (2S,3R)-3-hydroxy-4-(N-isobutylbenzo[d]oxazole-6-carboxamido)-1-phenylbutan-2-ylcarbamate] | > 100 | > 100 | 67 | 95 | 76 | 93 | 92 | 77 | 7 | 81
7 | Cc1nc2ccc(C(=O)N(CC(C)C)C[C@@H](O)[C@H](Cc3ccccc3)NC(=O)OCc3cncs3)cc2o1 [Compound C40, Thiazol-5-ylmethyl (2S,3R)-3-hydroxy-4-(N-isobutyl-2-methylbenzo[d]-oxazole-6-carboxamido)-1-phenylbutan-2-ylcarbamate] | > 100 | > 100 | 60 | 94 | 74 | 89 | 91 | 56 | 0 | 79
8 | CC(C)CN(C[C@@H](O)[C@H](Cc1ccccc1)NC(=O)OCc1cncs1)C(=O)c1ccc2nc(N3CCN(C)CC3)oc2c1 [Compound C15, Thiazol-5-ylmethyl (2S,3R)-3-hydroxy-4-(N-isobutyl-2-(4-methylpiperazin-1-yl)benzo[d]oxazole-6-carboxamido)-1-phenylbutan-2-ylcarbamate] | > 100 | > 100 | 25 | 98 | 79 | 96 | 93 | 97 | 18 | 67
9 | CCN(C)c1nc2ccc(C(=O)N(CC(C)C)C[C@@H](O)[C@H](Cc3ccccc3)NC(=O)OCc3ccncc3)cc2o1 [Compound C10, Pyridin-4-ylmethyl (2S,3R)-4-(2-(ethyl(methyl)amino)-N-isobutylbenzo[d]-oxazole-6-carboxamido)-3-hydroxy-1-phenylbutan-2-ylcarbamate] | 49 | 46.8 | 13 | 91 | 71 | 93 | 95 | 99 | 18 | 70
